Patent US11224561B2, “Skin cleansing composition” (KAO CORPORATION, priority 2017, dated 2022)

Legend:
[1] = Detergency against keratotic plug during cleansing: penetration of the sample into keratotic plugs; set-up: species or system human; conditions: samples of Table 1, contact for 1 minute
Protocol: Keratotic plugs in the nasal region were removed with “Biore Nose Pack (manufactured by Kao Corporation)”, the resulting keratotic plugs on the pack were gently taken out with tweezers. […] Consequently, the sample entered into the gap between the slide glass and the cover glass by capillary phenomenon and was brought into contact with the keratotic plugs. The contact of the keratotic plugs and the sample was recorded with a digital microscope (VHX-5000, manufactured by Keyence Corporation, magnification: 150×), and the penetration of the sample into the keratotic plugs and the collapse state of the keratotic plugs were evaluated after one minute from the contact of the keratotic plugs with the sample. The results of each evaluation are shown in the columns “Keratotic plug detergency (penetration)” and “Keratotic plug detergency (during cleansing)” in Tables. The measurements were performed at 25° C. The penetration was relatively evaluated by criteria with 11 ratings from the rating 1 “the sample hardly penetrated into the keratotic plug” to the rating 11 “the sample penetrated to the center of the keratotic plug”. The collapsibility by the detergency against keratotic plug was relatively evaluated by criteria with 11 ratings from the rating 1 “almost no change is observed in the external appearance of the keratotic plug” to the rating 11 “peeling or separation is observed in the area from the surface layer to the central portion of the keratotic plug (the initial appearance of the keratotic plug is not retained)”.

[2] = Detergency against keratotic plug during cleansing: collapse state of keratotic plugs; set-up: species or system human; conditions: samples of Table 1, contact for 1 minute
Protocol: Keratotic plugs in the nasal region were removed with “Biore Nose Pack (manufactured by Kao Corporation)”, the resulting keratotic plugs on the pack were gently taken out with tweezers.
The resulting keratotic plugs were placed on a slide glass and were covered with a cover glass, and 0.05 mL of a sample was dropwise added to an edge of the cover glass. Consequently, the sample entered into the gap between the slide glass and the cover glass by capillary phenomenon and was brought into contact with the keratotic plugs. The contact of the keratotic plugs and the sample was recorded with a digital microscope (VHX-5000, manufactured by Keyence Corporation, magnification: 150×), and the penetration of the sample into the keratotic plugs and the collapse state of the keratotic plugs were evaluated after one minute from the contact of the keratotic plugs with the sample. The results of each evaluation are shown in the columns “Keratotic plug detergency (penetration)” and “Keratotic plug detergency (during cleansing)” in Tables. The measurements were performed at 25° C.
The penetration was relatively evaluated by criteria with 11 ratings from the rating 1 “the sample hardly penetrated into the keratotic plug” to the rating 11 “the sample penetrated to the center of the keratotic plug”. The collapsibility by the detergency against keratotic plug was relatively evaluated by criteria with 11 ratings from the rating 1 “almost no change is observed in the external appearance of the keratotic plug” to the rating 11 “peeling or separation is observed in the area from the surface layer to the central portion of the keratotic plug (the initial appearance of the keratotic plug is not retained)”.

[3] = Detergency against keratotic plug after washing with water: collapse state; set-up: species or system human; conditions: samples of Table 1, washing with water
Text: The penetration was relatively evaluated by criteria with 11 ratings from the rating 1 “the sample hardly penetrated into the keratotic plug” to the rating 11 “the sample penetrated to the center of the keratotic plug”. The collapsibility by the detergency against keratotic plug was relatively evaluated by criteria with 11 ratings from the rating 1 “almost no change is observed in the external appearance of the keratotic plug” to the rating 11 “peeling or separation is observed in the area from the surface layer to the central portion of the keratotic plug (the initial appearance of the keratotic plug is not retained)”. After one minute from the contact of the keratotic plugs with the sample, Kimwipes (registered trademark) was brought into contact with an edge of the cover glass to remove the sample under the cover glass. […] The results of the evaluation are shown in the column “Keratotic plug detergency (during washing with water)” in Table. The measurements were performed at 25° C.

[4] = test system: insoluble protein (seine protein); experiment: Effect of suppressing protein aggregation (precipitation of insoluble protein); conditions: sample of Table 1
Protocol: Thirty milliliters of a sample and 0.06 g of an insoluble protein (seine protein) were placed in a 35-mL standard glass bottle, and the concentration of the insoluble protein was adjusted to 0.2 mass % (test sample). Separately, a standard sample was prepared by using water instead of the sample and adjusting the concentration of the insoluble protein to 0.2 mass %. Subsequently, the standard glass bottles were sufficiently shaken and stirred up and down (shake width: 15 cm, 20 times at a rate of 5 times for 3 seconds) in a thermostatic chamber of 25° C. and were left to stand for 3 minutes. The precipitation state of the insoluble protein was then visually verified, and the ratio of the amount of the precipitated standard sample to the amount of the precipitated test sample (the height of the precipitate in each standard glass bottle was measured as the precipitation amount), (precipitation amount of standard sample)/(precipitation amount of test sample), was calculated. A higher ratio indicates a higher effect of suppressing protein aggregation.

[5] = at 25° C.; cited from earlier work

Molecule | penetration of the sample into keratotic plugs (in words) [1] | collapse of keratotic plugs in contact with the sample (in words) [2] | swelling of sample-treated keratotic plugs on contact with water (in words) [3] | action on proteins (in words) [4] | pKa [5]
O=P([O-])([O-])O.[Na+].[Na+] [disodium hydrogen phosphate] | hardly penetrated into keratotic plugs | the collapse of the keratotic plugs did not progress | did not swell even when contacted with water |  | 
sodium polyoxyethylene (2) lauryl ether sulfate [POE (2) sodium lauryl sulfate] | hardly penetrated into the keratotic plugs | the collapse of the keratotic plugs did not progress |  | the action on proteins was strong to dissolve the proteins | 
O=C([O-])O.[Na+] [sodium hydrogen carbonate] | hardly penetrated into keratotic plugs | the collapse of the keratotic plugs did not progress | did not swell even when contacted with water |  | 
CC(N)(CO)CO [AMPD, 2-amino-2-methyl-1,3-propanediol] | penetrated into keratotic plugs |  | swelled when contacted with water |  | 
CC(C)(N)CO [Component (X3)] |  |  |  |  | 9.72
O=P([O-])([O-])[O-].[Na+].[Na+].[Na+] [trisodium phosphate] | hardly penetrated into keratotic plugs | the collapse of the keratotic plugs did not progress | did not swell even when contacted with water |  | 
